Assay results published in patent US9084805B2, “Sialic acid to support the immune system in the elderly” (Nestec S.A., priority 2008, dated 2015).

Key:
Type in all cases: in vivo, C57BL/6J mice
[1] = test system: aged mice; test: Delayed-type hypersensitivity (DTH) response, ear swelling after KLH elicitation, in aged mice; settings: aged mice (19-months old), 0.8 weight-% N-acetylneuraminic acid in AlN-93 diet, vs non-supplemented AlN-93, n=10
Procedure: Specific pathogen-free male C57BL/6J mice (4-weeks old) were purchased from Janvier (France). Mice were housed under conventional circumstances (12 hours light/dark cycle, temperature 22° C., humidity 56%) and received water and semi-synthetic Kliba 3436 diet ad libitum. Until the age of 5 months, mice were maintained at 5 per cage and then they were individually caged. All conditions and handling of the animals were approved by the Nestle and state ethical committees with the agreement of the Swiss Federal Veterinary Advisor. 19-months old mice were randomized into 2 groups of 10 animals and were fed with a semi-synthetic AlN-93 diet either non-supplemented (group control AlN-93, n=10) or supplemented with SiAc (0.8 weight-% N-acetylneuraminic acid in the diet) (group SiAc, n=10). During the 42 days of trial, all mice were allowed to drink and eat ad libitum.
The DTH response was used as an in vivo measure of cellular immunity. […] At 24 hours post-elicitation, and during the following 5 days, both the non-elicited (left ear) and the elicited ears (right ear) were measured. DTH responses (KLH-PBS) were expressed as the magnitude of ear swelling, i.e. the change in ear thickness using the following formula: Δ in ear thickness=[elicited ear (right, KLH) ear sickness−non-elicited (left, PBS) ear sickness], where Δ in ear thickness=[post-elicitation−pre-elicitation ear thickness].

[2] = test system: TGF-β2; test: Liver mRNA expression of TGF-β2 in aged mice (TaqMan low density array); settings: 0.8 weight-% N-acetylneuraminic acid in diet for 42 days, vs non-supplemented AlN-93, n=8
Procedure: (§1) Specific pathogen-free male C57BL/6J mice (4-weeks old) were purchased from Janvier (France). Mice were housed under conventional circumstances (12 hours light/dark cycle, temperature 22° C., humidity 56%) and received water and semi-synthetic Kliba 3436 diet ad libitum. Until the age of 5 months, mice were maintained at 5 per cage and then they were individually caged. All conditions and handling of the animals were approved by the Nestle and state ethical committees with the agreement of the Swiss Federal Veterinary Advisor. […]
(§2) Mice were killed on day 42 of trial. The expression of genes involved in inflammatory processes was determined in the liver of aged mice that were supplemented or not with SiAc for 42 days. […]
(§3) Liver samples were transferred into 1 ml of RNA lysis buffer (Macherey-Nagel, Düren, Germany) and homogenized using Ribolyzer (Hybaid, Waltham, Mass., USA) with the following setting: power at 6 for 20 seconds. […] RNA quantification was achieved using the Ribogreen RNA Quantitation Kit (Molecular Probes; Eugene, Oreg. USA), and RNA quality was assayed using Agilent RNA 6000 Nano LabChip Kit (Agilent Technologies, Palo Alto, USA). […]

[3] = test system: SOD2; test: Liver mRNA expression of SOD2 in aged mice (TaqMan low density array); settings: 0.8 weight-% N-acetylneuraminic acid in diet for 42 days, vs non-supplemented AlN-93, n=8
Procedure: as §1, §2, §3

[4] = test system: HO-1; test: Liver mRNA expression of HO-1 in aged mice (TaqMan low density array); settings: 0.8 weight-% N-acetylneuraminic acid in diet for 42 days, vs non-supplemented AlN-93, n=8
Procedure: as §1, §2, §3

CC(=O)N[C@H]1[C@H]([C@H](O)[C@H](O)CO)OC(O)(C(=O)O)C[C@@H]1O (stereo partly shown) [SiAc, N-acetylneuraminic acid] was tested, and the “cell-mediated immune response (DTH response, FIG. 1)” value [1] was “improved”, the “expression of gene encoding anti-inflammatory molecule TGF-β2 (FIG. 2)” value [2] was “increased expression” and the “expression of gene encoding SOD2, defence against oxidative damage (FIG. 2)” value [3] was “increased expression”. The “expression of gene encoding HO-1, defence against oxidative damage (FIG. 2)” value [4] was “increased expression”.
